Measurements published in the NIST ThermoML archive (doi:10.1021/acs.jced.7b00601).
± gives the expanded uncertainty stated by the source.

Assays:
[1] = Crystal; DTA
[2] = Molar enthalpy of transition or fusion; details: Crystal; DSC

Normal melting temperature [1]: 162.00 ± 2.9 °C | Molar enthalpy of transition or fusion [2]: 8.35 ± 0.232 kcal/mol
Compound: COc1c(N2CCNC(C)C2)c(F)cc2c(=O)c(C(=O)O)cn(C3CC3)c12 (configuration not stated) [gatifloxacin]
